Data: patent US20060247318A1, “Small molecule inhibitors of STAT3 and the uses thereof” (priority 2005, published 2006)

What was measured:
SV40 luciferase reporter = SV40 luciferase reporter (control lacking Stat3 binding sites) in MDA-MB-435s clones; assay type: cell-based; conditions: reporter without Stat3 DNA binding site, 20 μM, 48 h
Procedure: (§1) FIGS. 2A-2B show the inhibition of Stat3 dependent luciferase activity in cancer cells by STA-21. (A) The clone from Caov-3 carcinoma cells stably transfected with pLucTKS3 Stat3-dependent luciferase reporter was used for initial Sat3 small molecule inhibitor screening. The cloned cells were treated with 20 μM of STA-21 as well as other small molecule compounds for 48 h, then the cells were harvested for luciferase activity analysis. (B) The clones from MDA-MB-435s cells stably transfected with pLucTKS3 Stat3-dependent luciferase reporter or SV40 luciferase reporter were treated with 20 μM of STA-21 for 48 h. Luciferase activity was measured using a Promega luciferase kit according to the manufacturer's instructions. The results were based on the averages and standard deviations from three separate experiments.
(§2) The 100 selected inhibitors were evaluated using a Stat3 luciferase reporter system. Both MDA-MB-435s breast carcinoma cells and Caov-3 ovarian carcinoma cells express constitutively activated Stat3 (Song et al., Int. J. Oncol. 24:1017 (2004); Song et al., Biochem. Biophys. Res. Commun. 314:143 (2004)). […] The selected clones were exposed to Stat3 inhibitors at a final concentration of 20 μM for 48 h and luciferase activity was measured using a Promega Luciferase kit (Madison, Wis.).

Stat3 [1] = test: Stat3-dependent luciferase reporter (pLucTKS3) in MDA-MB-435s cloned cells; assay type: cell-based; conditions: pLucTKS3, 20 μM, 48 h
Procedure: as §1, §2

Stat3 [2] = test: Electrophoretic mobility shift assay, MDA-MB-435s nuclear extract; assay type: biochemical; conditions: 30 μM, 30 min
Procedure: (§3) FIGS. 3A-3B show the inhibition of Stat3 DNA binding activity and Stat3-regulated anti-apoptotic factors by STA-21. (A) MDA-MB-435s cell nuclear extract was incubated with 30 μM STA-21 for 30 min at room temperature, and then incubated with r-^32P-ATP labeled consensus binding sequence for 20 min at room temperature. The reaction mixtures were resolved on 8% polyacrylamide gel. (B) The lysates from MDA-MB-468 cells treated with the indicated concentrations of STA-21 for 48 h were resolved on 10% SDS-PAGE, then immunoblotted with antibodies as indicated.
(§4) It was next examined whether or not STA-21 could reduce Stat3 DNA binding activity using electrophoretic mobility shift assays as reported (Turkson et al., J. Biol. Chem. 276:45443 (2001)). In MDA-MB-435s breast carcinoma cells with constitutive Stat3 signaling, high Stat3 DNA binding activity was observed (FIG. 3A).

Stat3 [3] = test: Co-immunoprecipitation of Stat3-Flag and Stat3-HA (dimerization) in MDA-MB-435s cells; assay type: cell-based; conditions: 20 μM, 24 h
Description: (A) Untransfected and untreated MDA-MB-435s cells. (B and E) Cells cotransfected with pCMV-Stat3-Flag and pCMV-Stat3-HA plasmids were immunostained with anti-flag IgG-Rhodamine. (B) Untreated cells and (E) STA-21 treated cells. (C and F) Transfected cells were immunostained with anti-HA IgG-FITC. (C) Untreated cells and (F) STA-21 treated cells. (D and G) Transfected cells were co-immunostained with both anti-HA IgG-FITC and anti-flag IgG-Rhodamine. […] (H) MDA-MB-435s cells were cotransfected with pCMV-Stat3-Flag and pCMV-Stat3-HA plasmids and were exposed to 20 μM STA-21 for 24 h, then cell lysates were immunoprecipitated with anti-HA or anti-Flag antibodies. Immunoprecipitates were resolved on 10% SDS-PAGE and then immunoblotted with anti-HA, anti-Flag or anti-Stat3 antibodies.
The effect of STA-21 on Stat3 in vivo dimerization in breast cancer MDA-MB-435s cells was also investigated. After the exposure to 20 μM STA-21 for 24 h, the cells were harvested and the lysates from the cells expressing Stat3-Flag and Stat3-HA tagged proteins were immunoprecipitated with an anti-Flag or anti-HA antibody, respectively. The immunoprecipitated reaction mixtures were resolved on a 10% SDS-PAGE and immunoblotted with an anti-HA, anti-Flag, or anti-Stat3 antibody, respectively.

Stat3 [4] = test: Stat3-dependent luciferase reporter (pLucTKS3) in Caov-3 cloned cells; assay type: cell-based; conditions: pLucTKS3, 20 μM, 48 h
Procedure: as §1, §2

Stat5 = test: Electrophoretic mobility shift assay, MDA-MB-435s cells; assay type: biochemical
[5] = tested on: breast cancer cells that contain constitutively active Stat3; test: Cell viability assays using MTT; assay type: cell-based
Description: (§5) Since STA-21 inhibited Stat3-dependent luciferase and DNA binding activities, it was next examined whether STA-21 inhibited the growth and survival of breast cancer cells with constitutive Stat3 signaling. […] The Stat3 status of the cell lines was confirmed by measurement of phosphorylated Stat3 (FIG. 4A).

ERK (P-ERK) = test: Western blot of MDA-MB-468 cell lysates; assay type: cell-based; conditions: MDA-MB-468 cells, 48 h
Procedure: as §3, §4

Bcl-XL = test: Western blot of MDA-MB-468 cell lysates; assay type: cell-based; conditions: MDA-MB-468 cells, 20 or 30 μM, 48 h
Procedure: as §3, §4

AKT (P-AKT) = test: Western blot of MDA-MB-468 cell lysates; assay type: cell-based; conditions: MDA-MB-468 cells, 48 h
Procedure: as §3, §4

MDA-MB-468 = test: Sub-G1 flow cytometry (apoptotic cells), survival; assay type: cell-based; conditions: MDA-MB-468, constitutively activated Stat3, 20 μM or 30 μM, 48 h
Procedure: (§6) (A) The phosphorylation of Stat3 at Y-705 in different cell lines. (B) The cell lines were treated with STA-21 at concentrations as indicated for 48 h, and then cells were harvested and analyzed for the Sub-G1 profile that indicated apoptotic cells on a FACScan Flow Cytometer (Becton Dickinson, San Jose, Calif.). The results were based on the averages and standard deviations from three separate experiments.
as §5

MDA-MB-231 = test: Sub-G1 flow cytometry (apoptotic cells), survival; assay type: cell-based; conditions: MDA-MB-231, constitutively activated Stat3, 20 μM or 30 μM, 48 h
Procedure: as §6, §5

MDA-MB-453 = test: Sub-G1 flow cytometry (apoptotic cells), survival; assay type: cell-based; conditions: MDA-MB-453, no constitutive Stat3 signaling, 20 μM or 30 μM, 48 h
Procedure: as §6, §5

[6] = tested on: human skin fibroblasts (HSF); test: Sub-G1 flow cytometry (apoptotic cells), survival; assay type: cell-based; conditions: no constitutive Stat3 signaling, 20 μM or 30 μM, 48 h
Procedure: as §6, §5

MDA-MB-435s = test: Sub-G1 flow cytometry (apoptotic cells), survival; assay type: cell-based; conditions: constitutively activated Stat3, 20 μM or 30 μM, 48 h
Procedure: as §6, §5

MCF7 = test: Sub-G1 flow cytometry (apoptotic cells), survival; assay type: cell-based; conditions: MCF7, no constitutive Stat3 signaling, 20 μM or 30 μM, 48 h
Procedure: as §6, §5

Stat1 = target: T1, Stat1 (Homo sapiens, UniProt P42224); test: Electrophoretic mobility shift assay, MDA-MB-435s cells; assay type: biochemical
T1 construct: MDA-MB-435s cell nuclear extract was incubated with 30 μM STA-21 for 30 min at room temperature; endogenous in cells; host or cells: MDA-MB-435s nuclear extract
T1 sequence (P42224 1-750): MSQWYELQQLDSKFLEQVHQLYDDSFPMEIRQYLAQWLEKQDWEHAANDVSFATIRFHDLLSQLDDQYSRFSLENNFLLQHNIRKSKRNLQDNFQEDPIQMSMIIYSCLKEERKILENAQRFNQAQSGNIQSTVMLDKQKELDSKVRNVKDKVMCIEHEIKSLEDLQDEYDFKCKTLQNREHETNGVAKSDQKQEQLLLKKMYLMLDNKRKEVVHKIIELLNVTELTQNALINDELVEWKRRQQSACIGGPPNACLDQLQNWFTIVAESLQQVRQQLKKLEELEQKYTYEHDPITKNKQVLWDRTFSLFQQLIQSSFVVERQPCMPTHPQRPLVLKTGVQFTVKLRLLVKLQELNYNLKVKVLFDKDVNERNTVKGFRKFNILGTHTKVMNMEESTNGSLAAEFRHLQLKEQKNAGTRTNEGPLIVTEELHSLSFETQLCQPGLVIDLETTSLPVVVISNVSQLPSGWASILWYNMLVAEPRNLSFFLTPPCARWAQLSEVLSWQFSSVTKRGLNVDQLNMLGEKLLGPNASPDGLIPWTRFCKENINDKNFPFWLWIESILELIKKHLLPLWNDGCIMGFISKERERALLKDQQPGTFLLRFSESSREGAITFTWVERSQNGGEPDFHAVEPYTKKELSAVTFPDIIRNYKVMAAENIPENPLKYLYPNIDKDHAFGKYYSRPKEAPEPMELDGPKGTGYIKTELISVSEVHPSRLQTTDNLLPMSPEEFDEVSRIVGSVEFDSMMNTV

C[C@@H]1CC(=O)c2c(ccc3c2C(=O)c2cccc(O)c2C3=O)C1 [STA-21]
luciferase activity, SV40 luciferase reporter (SV40 luciferase reporter): did not affect luciferase activity | luciferase activity (Stat3 [1]): decreased more than five fold | Stat3 DNA binding activity (Stat3 [2]): inhibited Stat3 DNA binding activity | Stat3 dimerization between Stat3-Flag and Stat3-HA proteins (Stat3 [3]): abrogated Stat3 dimerization | effect on Stat3 induced luciferase activity (Stat3 [4]): remarkable inhibitory effect | Stat5 DNA binding activity (Stat5): not Stat1 and Stat5 DNA binding activity | growth and survival, cell viability (MTT) combined with sub-G1 data [5]: strong potential to inhibit the growth and survival | phosphorylation of ERK (P-ERK) (ERK (P-ERK)): did not affect the phosphorylation | downstream anti-apoptotic effector Bcl-XL, Western blot (Bcl-XL): inhibited the downstream anti-apoptotic effector Bcl-XL | phosphorylation of AKT (P-AKT) (AKT (P-AKT)): did not affect the phosphorylation | inhibition of survival (accumulation of cells in sub-G1 phase) (MDA-MB-468): remarkable inhibitory activity | inhibition of survival (accumulation of cells in sub-G1 phase) (MDA-MB-231): remarkable inhibitory activity | inhibition of survival (sub-G1) (MDA-MB-453): minimal inhibitory effect | inhibition of survival (sub-G1) [6]: minimal inhibitory effect | inhibition of survival (accumulation of cells in sub-G1 phase) (MDA-MB-435s): remarkable inhibitory activity | inhibition of survival (sub-G1) (MCF7): minimal inhibitory effect | Stat1 DNA binding activity (Stat1): not Stat1 and Stat5 DNA binding activity
